Measurements published in publication PMC4457528, “Identification of Novel Small Molecule Inhibitors of Oncogenic RET Kinase” (PLoS ONE, 2015).
Read-outs that look alike come from different tables or passages of the source.

How the values were obtained:
Assay in all cases: KinomeScan kinase panel, single concentration 10 µM
Format in all cases: binding
KinomeScan kinase panel [1] = target: T1, KinomeScan kinase panel (Homo sapiens, UniProt P00519, M351T); conditions: 10 µM, read-out: score (%)
T1 construct: purchased DiscoveRx (KinomeScan)

KinomeScan kinase panel [2] = target: T2, KinomeScan kinase panel (Homo sapiens, UniProt P04629); conditions: 10 µM, read-out: score (%)
T2 construct: purchased DiscoveRx (KinomeScan)
T2 sequence (P04629 33-796): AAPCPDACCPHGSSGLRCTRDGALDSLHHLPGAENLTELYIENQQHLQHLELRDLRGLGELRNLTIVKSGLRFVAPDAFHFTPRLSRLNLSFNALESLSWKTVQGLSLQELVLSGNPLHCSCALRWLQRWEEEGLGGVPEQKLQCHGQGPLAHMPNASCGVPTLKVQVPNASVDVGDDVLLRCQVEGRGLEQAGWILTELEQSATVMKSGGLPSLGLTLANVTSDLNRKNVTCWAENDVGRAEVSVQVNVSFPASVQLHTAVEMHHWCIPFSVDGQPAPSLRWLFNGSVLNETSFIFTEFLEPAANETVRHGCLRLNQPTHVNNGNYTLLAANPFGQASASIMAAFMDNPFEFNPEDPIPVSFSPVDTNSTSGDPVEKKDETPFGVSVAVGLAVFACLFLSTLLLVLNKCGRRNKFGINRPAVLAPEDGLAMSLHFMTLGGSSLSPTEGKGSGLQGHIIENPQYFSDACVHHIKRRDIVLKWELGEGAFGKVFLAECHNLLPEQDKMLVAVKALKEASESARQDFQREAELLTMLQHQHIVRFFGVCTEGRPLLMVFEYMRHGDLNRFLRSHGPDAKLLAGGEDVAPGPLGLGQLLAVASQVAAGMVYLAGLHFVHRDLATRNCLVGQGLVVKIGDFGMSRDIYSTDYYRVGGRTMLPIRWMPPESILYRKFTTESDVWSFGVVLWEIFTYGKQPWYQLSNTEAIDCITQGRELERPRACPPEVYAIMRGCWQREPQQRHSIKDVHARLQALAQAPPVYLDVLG

KinomeScan kinase panel [3] = target: T3, KinomeScan kinase panel (Homo sapiens, UniProt P07949); conditions: 10 µM, read-out: score (%)
T3 construct: purchased DiscoveRx (KinomeScan)

KinomeScan kinase panel [4] = target: T4, KinomeScan kinase panel (Homo sapiens, UniProt P42685); conditions: FRK, 10 µM; read-out: score (%)
T4 construct: purchased DiscoveRx (KinomeScan)
T4 sequence (P42685 whole entry): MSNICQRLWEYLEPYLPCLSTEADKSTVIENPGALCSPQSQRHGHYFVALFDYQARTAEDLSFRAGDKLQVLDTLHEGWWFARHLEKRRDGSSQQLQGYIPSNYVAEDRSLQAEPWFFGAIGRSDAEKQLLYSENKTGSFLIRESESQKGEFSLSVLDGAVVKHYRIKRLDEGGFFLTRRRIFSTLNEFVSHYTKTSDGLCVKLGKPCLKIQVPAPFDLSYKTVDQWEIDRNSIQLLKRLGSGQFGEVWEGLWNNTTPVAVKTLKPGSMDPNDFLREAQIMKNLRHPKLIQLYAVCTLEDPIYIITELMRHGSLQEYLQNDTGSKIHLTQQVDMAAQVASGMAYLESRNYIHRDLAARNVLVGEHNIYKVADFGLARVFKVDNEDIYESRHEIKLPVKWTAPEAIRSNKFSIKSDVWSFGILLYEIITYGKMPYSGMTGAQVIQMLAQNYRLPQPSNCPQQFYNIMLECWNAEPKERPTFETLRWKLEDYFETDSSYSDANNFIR

KinomeScan kinase panel [5] = target: T5, KinomeScan kinase panel (Homo sapiens, UniProt P53778); conditions: p38-gamma, 10 µM; read-out: score (%)
T5 construct: purchased DiscoveRx (KinomeScan)
T5 sequence (P53778 1-367): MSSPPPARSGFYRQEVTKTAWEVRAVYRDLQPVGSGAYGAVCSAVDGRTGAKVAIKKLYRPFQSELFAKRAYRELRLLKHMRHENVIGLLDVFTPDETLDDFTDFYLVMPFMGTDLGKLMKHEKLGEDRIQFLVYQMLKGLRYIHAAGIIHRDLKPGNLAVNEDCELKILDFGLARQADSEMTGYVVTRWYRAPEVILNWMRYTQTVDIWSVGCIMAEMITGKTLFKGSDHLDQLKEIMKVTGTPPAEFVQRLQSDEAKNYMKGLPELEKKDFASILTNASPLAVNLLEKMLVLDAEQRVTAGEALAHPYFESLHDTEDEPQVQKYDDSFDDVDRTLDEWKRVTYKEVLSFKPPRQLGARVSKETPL

KinomeScan kinase panel [6] = target: T6, KinomeScan kinase panel (Homo sapiens, UniProt Q04759); conditions: 10 µM, read-out: score (%)
T6 construct: purchased DiscoveRx (KinomeScan)
T6 sequence (Q04759 whole entry): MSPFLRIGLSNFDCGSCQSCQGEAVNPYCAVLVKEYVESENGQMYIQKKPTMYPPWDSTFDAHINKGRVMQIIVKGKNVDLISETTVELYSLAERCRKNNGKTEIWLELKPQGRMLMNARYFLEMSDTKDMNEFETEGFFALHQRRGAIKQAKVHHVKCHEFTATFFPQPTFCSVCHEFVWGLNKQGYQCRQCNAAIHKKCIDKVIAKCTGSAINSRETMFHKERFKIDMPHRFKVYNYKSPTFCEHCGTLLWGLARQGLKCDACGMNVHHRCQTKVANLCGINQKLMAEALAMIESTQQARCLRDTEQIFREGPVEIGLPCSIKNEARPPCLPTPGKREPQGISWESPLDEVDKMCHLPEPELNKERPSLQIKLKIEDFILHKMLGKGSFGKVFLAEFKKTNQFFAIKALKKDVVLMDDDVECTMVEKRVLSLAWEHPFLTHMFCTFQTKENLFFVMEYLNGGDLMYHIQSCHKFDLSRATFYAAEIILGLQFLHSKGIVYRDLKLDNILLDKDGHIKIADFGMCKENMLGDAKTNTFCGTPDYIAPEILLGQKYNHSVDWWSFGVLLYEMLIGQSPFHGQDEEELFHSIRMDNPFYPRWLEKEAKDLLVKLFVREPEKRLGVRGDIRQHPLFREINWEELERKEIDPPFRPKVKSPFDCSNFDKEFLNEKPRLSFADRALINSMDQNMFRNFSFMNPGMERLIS

KinomeScan kinase panel [7] = target: T7, KinomeScan kinase panel (Homo sapiens, UniProt Q12851); conditions: MAP4K2, 10 µM; read-out: score (%)
T7 construct: purchased DiscoveRx (KinomeScan)
T7 sequence (Q12851 1-820): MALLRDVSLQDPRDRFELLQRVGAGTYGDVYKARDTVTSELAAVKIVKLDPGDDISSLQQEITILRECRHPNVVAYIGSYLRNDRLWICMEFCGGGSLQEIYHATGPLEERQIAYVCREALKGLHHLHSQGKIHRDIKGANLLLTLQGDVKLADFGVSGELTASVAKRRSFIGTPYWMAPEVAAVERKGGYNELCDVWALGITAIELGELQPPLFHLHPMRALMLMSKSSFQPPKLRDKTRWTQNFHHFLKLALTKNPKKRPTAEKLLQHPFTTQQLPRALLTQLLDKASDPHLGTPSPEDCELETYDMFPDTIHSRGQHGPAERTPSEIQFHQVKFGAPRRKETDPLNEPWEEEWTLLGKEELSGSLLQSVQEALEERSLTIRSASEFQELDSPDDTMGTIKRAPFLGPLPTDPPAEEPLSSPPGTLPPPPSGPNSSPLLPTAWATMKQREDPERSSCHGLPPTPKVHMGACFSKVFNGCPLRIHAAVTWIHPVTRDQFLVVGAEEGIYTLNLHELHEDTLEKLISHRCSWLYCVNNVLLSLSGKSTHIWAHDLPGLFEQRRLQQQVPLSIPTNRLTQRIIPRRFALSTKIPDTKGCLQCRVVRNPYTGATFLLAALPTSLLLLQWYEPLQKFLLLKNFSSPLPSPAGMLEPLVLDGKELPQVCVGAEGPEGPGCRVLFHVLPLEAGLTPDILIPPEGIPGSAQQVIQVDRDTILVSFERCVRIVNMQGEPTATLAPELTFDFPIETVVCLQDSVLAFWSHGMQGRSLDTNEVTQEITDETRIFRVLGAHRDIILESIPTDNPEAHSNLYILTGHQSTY

KinomeScan kinase panel [8] = target: T8, KinomeScan kinase panel (Homo sapiens, UniProt Q15746); conditions: MYLK, 10 µM; read-out: score (%)
T8 construct: purchased DiscoveRx (KinomeScan)
T8 sequence (Q15746 whole entry): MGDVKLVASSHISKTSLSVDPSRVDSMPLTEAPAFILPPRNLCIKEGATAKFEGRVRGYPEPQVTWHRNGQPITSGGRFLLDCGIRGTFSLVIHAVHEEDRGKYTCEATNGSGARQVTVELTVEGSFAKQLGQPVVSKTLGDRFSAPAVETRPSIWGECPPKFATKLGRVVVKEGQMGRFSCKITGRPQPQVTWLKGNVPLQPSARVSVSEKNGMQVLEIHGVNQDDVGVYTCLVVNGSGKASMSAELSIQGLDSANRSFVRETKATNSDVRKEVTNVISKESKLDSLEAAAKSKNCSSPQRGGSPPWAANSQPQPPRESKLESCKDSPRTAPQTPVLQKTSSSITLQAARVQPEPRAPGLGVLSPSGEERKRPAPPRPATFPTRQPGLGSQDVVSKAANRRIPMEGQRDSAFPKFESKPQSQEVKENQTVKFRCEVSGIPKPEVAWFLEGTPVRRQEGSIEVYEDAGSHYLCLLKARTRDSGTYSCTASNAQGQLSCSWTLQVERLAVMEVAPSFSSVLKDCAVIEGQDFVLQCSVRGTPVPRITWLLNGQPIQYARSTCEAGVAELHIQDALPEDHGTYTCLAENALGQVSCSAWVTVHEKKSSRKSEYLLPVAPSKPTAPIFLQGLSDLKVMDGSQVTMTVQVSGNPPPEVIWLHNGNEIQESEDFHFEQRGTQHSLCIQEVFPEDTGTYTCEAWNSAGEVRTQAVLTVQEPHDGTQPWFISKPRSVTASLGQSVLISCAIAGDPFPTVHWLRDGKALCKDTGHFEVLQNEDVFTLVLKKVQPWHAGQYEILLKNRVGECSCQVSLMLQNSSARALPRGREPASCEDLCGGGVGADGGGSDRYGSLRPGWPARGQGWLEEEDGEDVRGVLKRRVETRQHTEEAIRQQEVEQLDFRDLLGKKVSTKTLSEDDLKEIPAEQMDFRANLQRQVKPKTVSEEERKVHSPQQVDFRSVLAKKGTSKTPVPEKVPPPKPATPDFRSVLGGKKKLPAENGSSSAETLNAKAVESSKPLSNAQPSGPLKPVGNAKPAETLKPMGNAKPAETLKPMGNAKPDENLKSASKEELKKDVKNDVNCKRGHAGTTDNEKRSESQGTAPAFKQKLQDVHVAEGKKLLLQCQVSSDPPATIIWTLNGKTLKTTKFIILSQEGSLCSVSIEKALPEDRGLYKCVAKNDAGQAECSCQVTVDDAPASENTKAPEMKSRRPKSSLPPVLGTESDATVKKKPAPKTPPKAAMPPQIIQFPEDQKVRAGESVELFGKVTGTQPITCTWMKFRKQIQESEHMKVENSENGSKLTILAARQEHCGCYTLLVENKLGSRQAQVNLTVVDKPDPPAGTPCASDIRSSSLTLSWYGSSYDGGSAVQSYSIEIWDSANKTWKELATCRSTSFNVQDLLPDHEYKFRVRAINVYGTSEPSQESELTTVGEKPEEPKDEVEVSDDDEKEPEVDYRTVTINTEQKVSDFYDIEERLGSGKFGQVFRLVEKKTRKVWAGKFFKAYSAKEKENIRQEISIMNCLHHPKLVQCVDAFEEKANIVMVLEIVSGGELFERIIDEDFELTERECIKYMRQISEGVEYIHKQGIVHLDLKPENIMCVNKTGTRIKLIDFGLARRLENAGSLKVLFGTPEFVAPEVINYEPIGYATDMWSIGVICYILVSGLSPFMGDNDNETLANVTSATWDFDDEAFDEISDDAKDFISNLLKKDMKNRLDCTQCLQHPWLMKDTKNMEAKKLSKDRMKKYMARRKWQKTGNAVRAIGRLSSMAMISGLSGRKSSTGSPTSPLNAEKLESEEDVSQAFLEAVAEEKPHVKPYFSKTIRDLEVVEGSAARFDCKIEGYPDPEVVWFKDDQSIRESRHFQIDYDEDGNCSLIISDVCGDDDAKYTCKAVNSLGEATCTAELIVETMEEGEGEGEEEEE

KinomeScan kinase panel [9] = target: T9, KinomeScan kinase panel (Homo sapiens, UniProt Q16816); conditions: PHKG1, 10 µM; read-out: score (%)
T9 construct: purchased DiscoveRx (KinomeScan)
T9 sequence (Q16816 whole entry): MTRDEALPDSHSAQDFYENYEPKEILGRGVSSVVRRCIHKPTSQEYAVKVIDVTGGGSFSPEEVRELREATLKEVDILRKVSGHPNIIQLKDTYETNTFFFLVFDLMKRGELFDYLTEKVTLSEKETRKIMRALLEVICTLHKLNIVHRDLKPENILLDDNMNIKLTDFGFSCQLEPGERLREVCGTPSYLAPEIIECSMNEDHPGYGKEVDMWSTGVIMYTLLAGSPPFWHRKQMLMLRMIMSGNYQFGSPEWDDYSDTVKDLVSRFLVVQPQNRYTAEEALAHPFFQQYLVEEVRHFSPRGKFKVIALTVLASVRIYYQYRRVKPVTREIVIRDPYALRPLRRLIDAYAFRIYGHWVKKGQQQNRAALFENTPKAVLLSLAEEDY

KinomeScan kinase panel [10] = target: T10, KinomeScan kinase panel (Homo sapiens, UniProt Q9BZL6); conditions: read-out: score (%)
T10 construct: purchased DiscoveRx (KinomeScan)
T10 sequence (Q9BZL6 1-878): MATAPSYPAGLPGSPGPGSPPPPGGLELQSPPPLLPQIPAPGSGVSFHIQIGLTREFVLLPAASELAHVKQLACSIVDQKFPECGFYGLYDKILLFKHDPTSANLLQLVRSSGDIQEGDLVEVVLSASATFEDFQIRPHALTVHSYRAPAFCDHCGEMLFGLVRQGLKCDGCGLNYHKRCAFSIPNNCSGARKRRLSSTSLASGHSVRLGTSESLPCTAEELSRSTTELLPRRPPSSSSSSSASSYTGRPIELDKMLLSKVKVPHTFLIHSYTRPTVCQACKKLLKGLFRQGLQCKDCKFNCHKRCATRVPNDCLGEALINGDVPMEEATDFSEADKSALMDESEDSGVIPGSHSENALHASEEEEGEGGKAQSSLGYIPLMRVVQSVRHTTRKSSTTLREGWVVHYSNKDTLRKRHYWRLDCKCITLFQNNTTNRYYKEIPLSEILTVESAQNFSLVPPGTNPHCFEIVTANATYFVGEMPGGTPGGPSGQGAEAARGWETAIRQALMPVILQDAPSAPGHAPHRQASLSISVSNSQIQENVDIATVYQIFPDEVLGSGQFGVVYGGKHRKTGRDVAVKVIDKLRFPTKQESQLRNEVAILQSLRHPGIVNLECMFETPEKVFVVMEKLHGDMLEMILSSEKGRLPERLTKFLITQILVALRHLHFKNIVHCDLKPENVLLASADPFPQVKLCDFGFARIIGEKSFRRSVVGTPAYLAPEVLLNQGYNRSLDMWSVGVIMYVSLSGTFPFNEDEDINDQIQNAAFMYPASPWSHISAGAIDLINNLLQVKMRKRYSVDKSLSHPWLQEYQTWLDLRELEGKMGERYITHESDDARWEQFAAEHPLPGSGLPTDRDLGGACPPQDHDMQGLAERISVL

KinomeScan kinase panel [11] = target: T11, KinomeScan kinase panel (Homo sapiens, UniProt Q9H3Y6); conditions: 10 µM, read-out: score (%)
T11 construct: purchased DiscoveRx (KinomeScan)
T11 sequence (Q9H3Y6 whole entry): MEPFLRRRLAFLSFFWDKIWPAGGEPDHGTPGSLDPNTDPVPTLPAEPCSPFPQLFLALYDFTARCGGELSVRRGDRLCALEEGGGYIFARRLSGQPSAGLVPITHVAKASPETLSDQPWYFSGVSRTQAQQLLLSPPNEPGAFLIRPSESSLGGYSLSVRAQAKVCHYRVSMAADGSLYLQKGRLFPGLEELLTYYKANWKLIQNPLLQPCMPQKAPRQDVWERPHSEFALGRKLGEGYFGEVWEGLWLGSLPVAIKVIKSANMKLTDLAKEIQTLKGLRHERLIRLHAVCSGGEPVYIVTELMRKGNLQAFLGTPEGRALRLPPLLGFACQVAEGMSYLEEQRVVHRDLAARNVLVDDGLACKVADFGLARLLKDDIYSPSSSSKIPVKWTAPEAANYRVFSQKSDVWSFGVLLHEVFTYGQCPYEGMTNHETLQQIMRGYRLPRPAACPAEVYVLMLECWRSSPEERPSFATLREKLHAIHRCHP

| Structure (SMILES) | remaining binding at 10 µM (KinomeScan kinase panel [1]; ABL1(M351T)) | remaining binding at 10 µM (KinomeScan kinase panel [2]; kinase TRKA) | remaining binding at 10 µM (KinomeScan kinase panel [3]; RET) | remaining binding at 10 µM (KinomeScan kinase panel [4]) | remaining binding at 10 µM (KinomeScan kinase panel [5]) | remaining binding at 10 µM (KinomeScan kinase panel [6]; PRKCQ) | remaining binding at 10 µM (KinomeScan kinase panel [7]) | remaining binding at 10 µM (KinomeScan kinase panel [8]) | remaining binding at 10 µM (KinomeScan kinase panel [9]) | remaining binding at 10 µM (KinomeScan kinase panel [10]; PRKD2, 10 µM) | remaining binding at 10 µM (KinomeScan kinase panel [11]; kinase SRMS) | remaining binding at 10 µM (KinomeScan kinase panel [1]; ABL1(M351T)-phosphorylated) | remaining binding at 10 µM (KinomeScan kinase panel [3]; kinase RET) | remaining binding at 10 µM (KinomeScan kinase panel [6]; kinase PRKCQ) | remaining binding at 10 µM (KinomeScan kinase panel [10]; kinase PRKD2, 10 µM) | remaining binding at 10 µM (KinomeScan kinase panel [2]; TRKA) | remaining binding at 10 µM (KinomeScan kinase panel [11]; SRMS) |
| --- | --- | --- | --- | --- | --- | --- | --- | --- | --- | --- | --- | --- | --- | --- | --- | --- | --- |
| CCN1CCN(Cc2ccc(NC(=O)c3ccc(C)c(NC(=O)c4cncc(-c5cccs5)c4)c3)cc2C(F)(F)F)CC1 [ALW-II-41-27] | 0.55% | 4.4% | 0.05% | 0.2% | 3.6% | 22% | 0.6% | > 30% | > 30% | > 30% | 2.8% |  |  |  |  |  |  |
| CCN1CCN(Cc2ccc(NC(=O)c3ccc(C)c(C#Cc4cccnc4)c3)cc2C(F)(F)F)CC1 [XMD15-44] |  | 0.35% |  | 0.15% | 2.7% |  | 0% | > 30% | 88% |  | 0% | 2.6% | 0% | 55% | 56% |  |  |
| CCN1CCN(Cc2ccc(NC(=O)c3ccc(C)c(/C=C/c4cnc5[nH]ccc5c4Cl)c3)cc2C(F)(F)F)CC1 [HG-6-63-01, (E)-3-(2-(4-chloro-1H-pyrrolo[2,3-b]pyridin-5-yl)vinyl)-N-(4-((4-ethylpiperazin-1-yl)methyl)-3-(trifluoromethyl)phenyl)-4-methylbenzamide] | 0.1% |  | 0% | 0.55% | 13% | > 30% | 0.25% | > 30% | > 30% | 32% |  |  |  |  |  | 8.2% | 23% |
